Assay results from patent publication US8710092B2, “Substituted indolo 4,3 FG quinolines useful for treating migraine” (Map Pharmaceuticals, Inc., priority 2009, dated 2014).
Where two headings read alike, the source gives them in different places.

Assays:
[1] = target: T1, 5-HT2c receptor (Homo sapiens, UniProt P28335); assay: FLIPR agonist assay at the 5-HT2c receptor (analogous to Example 2); type: cell-based; conditions: for agonist activity at the 5-HT2c receptor: FLIPR
T1 sequence (P28335 33-458): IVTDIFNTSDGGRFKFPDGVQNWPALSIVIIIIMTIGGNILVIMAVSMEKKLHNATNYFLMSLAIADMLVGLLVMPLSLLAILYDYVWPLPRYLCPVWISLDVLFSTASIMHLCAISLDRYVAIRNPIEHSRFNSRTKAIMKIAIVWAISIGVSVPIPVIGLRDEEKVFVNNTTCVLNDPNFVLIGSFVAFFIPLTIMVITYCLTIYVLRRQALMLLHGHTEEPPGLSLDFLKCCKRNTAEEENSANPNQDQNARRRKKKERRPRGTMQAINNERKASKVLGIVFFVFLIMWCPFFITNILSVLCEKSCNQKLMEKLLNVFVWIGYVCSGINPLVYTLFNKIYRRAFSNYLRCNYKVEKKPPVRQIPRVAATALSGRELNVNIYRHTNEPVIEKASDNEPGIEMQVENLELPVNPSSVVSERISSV

[2] = target: T2, 5-HT2B receptor (Homo sapiens, UniProt P41595); assay: FLIPR assay, agonist selectivity at the 5-HT2B receptor; type: cell-based
T2 construct: Millipore, Inc. (GPCR Profiler Service Laboratory, St. Charles, Mo.)
Experimental: A FLIPR assay was conducted to monitor agonist selectivity for 1-methyl-dihydroergotamine against the 5-HT2B receptor. The assay was completed with an eight point, 4 fold serial dilution series starting with 10 μM concentration to obtain full dose response curve. Percentage activation values were determined for 1-methyl-dihydroergotamine on the 5-HT2B receptor. Agonist selectivity was determined upon initial addition of for 1-methyl-dihydroergotamine followed by a 5 minute incubation at 25° C. Following compound incubation, reference agonists were added at EC80. Agonist percentage activation determinations were obtained by assaying 1-methyl-dihydroergotamine and referencing the Emax control for the 5-HT2B receptor. The assay was performed by GPCR Profiler™ Service Laboratory, St. Charles, Mo., Millipore, Inc.

[3] = target: T3, 5-HT1A receptor (Homo sapiens, UniProt P08908); assay: Cell based assay (cAMP modulation with HTRF detection), agonist activity at 5-HT1A; conditions: percent of control response to 100 nM 8-OH-DPAT, FIG. 3
T3 sequence (P08908 1-422): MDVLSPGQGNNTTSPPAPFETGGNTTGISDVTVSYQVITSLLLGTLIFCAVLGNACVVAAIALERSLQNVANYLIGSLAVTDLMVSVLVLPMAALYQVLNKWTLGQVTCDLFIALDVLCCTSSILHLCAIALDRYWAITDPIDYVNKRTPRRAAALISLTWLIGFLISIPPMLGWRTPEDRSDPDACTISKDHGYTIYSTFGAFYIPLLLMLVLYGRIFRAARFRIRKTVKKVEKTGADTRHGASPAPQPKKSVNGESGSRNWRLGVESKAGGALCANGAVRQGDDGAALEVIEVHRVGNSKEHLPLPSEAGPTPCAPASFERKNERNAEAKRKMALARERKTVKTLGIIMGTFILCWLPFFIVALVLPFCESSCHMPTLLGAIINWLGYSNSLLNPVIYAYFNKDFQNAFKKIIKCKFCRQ
Experimental: (§1) A cell based assay (cAMP modulation with HTRF detection) was conducted to monitor agonist activity of test compounds at the 5-HT1A receptor, summarized in FIG. 3. Test compounds were serially diluted to provide a wide concentration range sufficient to calculate EC50. The cAMP concentration was determined and results are expressed as a percent of the control response to 100 nM 8-OH-DPAT (control agonist).

[4] = target: 5-HT7 receptor (Homo sapiens, UniProt P34969); assay: cAMP HTRF assay, antagonist activity at 5-HT7 (analogous to Example 6); type: cell-based; conditions: percent of control response to 300 nM serotonin, FIG. 4
Experimental: as §1
The assay was performed analogously to the assay described in Example 6. Antagonist activity of test compounds at the 5-HT7 receptor, using serotonin as a control reference agonist, was measured. Test compounds were serially diluted to provide a wide concentration range sufficient to calculate IC50. The results are expressed as a percent of the control response to 300 nM serotonin.

[5] = target: T1, 5-HT2c receptor; assay: FLIPR antagonist assay at the 5-HT2c receptor (analogous to Example 3); type: cell-based
[6] = target: 5-HT1B receptor (Homo sapiens, UniProt P28222); assay: Membrane based GTPγS assay, agonist activity at 5-HT1B; type: biochemical; conditions: 5-CT reference agonist, FIG. 5
Experimental: A membrane based GTPγS assay was conducted to monitor agonist activity of test compounds at the 5-HT1B receptor, summarized in FIG. 5. Test compounds were serially diluted to provide a wide concentration range sufficient to calculate EC50. The results are expressed as a percent of activation. 5-CT was used as a reference agonist.

[7] = target: 5-HT1D receptor (Homo sapiens, UniProt P28221); assay: Membrane based GTPγS assay, agonist activity at 5-HT1D; type: biochemical; conditions: 5-CT reference agonist, FIG. 6
[8] = target: T2, 5-HT2B receptor; assay: FLIPR assay, antagonist selectivity at the 5-HT2B receptor; type: cell-based; conditions: FIG. 2
Experimental: A FLIPR assay was conducted to monitor antagonist selectivity for 1-methyl-dihydroergotamine against the 5-HT2B receptor. The assay was completed with an eight point, 4 fold serial dilution series starting with 10 μM concentration to obtain full dose response curve. Percentage inhibition values were determined for 1-methyl-dihydroergotamine on the 5-HT2B receptor. Antagonist percentage inhibition determinations were obtained by assaying 1-methyl-dihydroergotamine and referencing the Emax control for the 5-HT2B receptor. The assay above was performed by GPCR Profiler™ Service Laboratory, St. Charles, Mo., Millipore, Inc.

[9] = FLIPR, FIG. 1, read-out: EC50, agonism of the 5-HT2B receptor

T2 sequence (P41595 whole entry): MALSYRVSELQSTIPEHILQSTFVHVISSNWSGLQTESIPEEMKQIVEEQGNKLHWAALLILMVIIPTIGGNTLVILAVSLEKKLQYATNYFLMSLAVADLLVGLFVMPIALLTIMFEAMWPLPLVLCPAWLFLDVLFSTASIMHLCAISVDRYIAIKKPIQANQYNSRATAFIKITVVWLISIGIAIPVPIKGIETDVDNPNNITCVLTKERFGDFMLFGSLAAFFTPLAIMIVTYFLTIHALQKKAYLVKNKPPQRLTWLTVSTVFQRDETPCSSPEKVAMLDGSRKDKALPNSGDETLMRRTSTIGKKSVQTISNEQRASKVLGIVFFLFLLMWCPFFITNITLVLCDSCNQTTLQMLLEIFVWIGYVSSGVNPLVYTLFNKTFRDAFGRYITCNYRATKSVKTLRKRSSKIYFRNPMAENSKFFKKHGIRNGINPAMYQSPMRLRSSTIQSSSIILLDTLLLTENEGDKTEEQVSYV
5-HT7 receptor, sequence (P34969 whole entry): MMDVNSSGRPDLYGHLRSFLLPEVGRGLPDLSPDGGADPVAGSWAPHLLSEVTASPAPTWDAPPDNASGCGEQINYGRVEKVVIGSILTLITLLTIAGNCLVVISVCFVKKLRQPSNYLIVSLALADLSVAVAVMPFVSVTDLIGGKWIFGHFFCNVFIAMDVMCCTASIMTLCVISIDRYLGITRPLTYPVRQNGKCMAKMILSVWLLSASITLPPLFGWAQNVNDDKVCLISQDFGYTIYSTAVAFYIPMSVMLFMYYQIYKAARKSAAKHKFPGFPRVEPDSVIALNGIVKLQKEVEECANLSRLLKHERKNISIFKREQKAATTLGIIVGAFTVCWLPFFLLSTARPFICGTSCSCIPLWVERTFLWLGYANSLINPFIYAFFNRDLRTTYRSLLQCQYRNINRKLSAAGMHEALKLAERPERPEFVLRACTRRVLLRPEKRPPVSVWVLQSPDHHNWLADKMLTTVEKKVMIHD
5-HT1D receptor, sequence (P28221 whole entry): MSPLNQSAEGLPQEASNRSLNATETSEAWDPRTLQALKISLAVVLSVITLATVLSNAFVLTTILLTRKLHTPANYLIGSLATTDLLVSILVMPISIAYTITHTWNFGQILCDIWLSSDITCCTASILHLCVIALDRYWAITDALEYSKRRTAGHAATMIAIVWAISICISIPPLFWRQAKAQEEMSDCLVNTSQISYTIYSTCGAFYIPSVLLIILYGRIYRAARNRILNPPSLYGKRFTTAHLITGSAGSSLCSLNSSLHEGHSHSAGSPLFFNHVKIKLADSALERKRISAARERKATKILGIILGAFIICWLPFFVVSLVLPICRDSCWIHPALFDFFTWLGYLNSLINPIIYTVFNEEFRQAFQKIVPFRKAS
5-HT1B receptor, sequence (P28222 whole entry): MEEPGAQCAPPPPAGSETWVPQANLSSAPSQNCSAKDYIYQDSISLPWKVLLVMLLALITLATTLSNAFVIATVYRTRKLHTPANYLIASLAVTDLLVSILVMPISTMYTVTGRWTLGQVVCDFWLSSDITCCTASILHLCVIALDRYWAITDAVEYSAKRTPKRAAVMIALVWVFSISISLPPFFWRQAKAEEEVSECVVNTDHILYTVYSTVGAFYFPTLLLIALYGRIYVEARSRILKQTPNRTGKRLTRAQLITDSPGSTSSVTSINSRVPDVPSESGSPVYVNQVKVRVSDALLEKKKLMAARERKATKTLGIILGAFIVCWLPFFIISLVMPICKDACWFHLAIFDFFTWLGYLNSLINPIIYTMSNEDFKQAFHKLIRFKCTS

| SMILES | agonist activity at the 5-HT2c receptor [1] | EC50 [2, 9] [µM] | IC50 [5] [µM] | EC50 [2] [µM] | other results |
| --- | --- | --- | --- | --- | --- |
| CCCN1C[C@H](CSC)C[C@@H]2c3cccc4[nH]cc(c34)C[C@H]21 [pergolide] | no agonist activity | 0.01 | – | – | – |
| CN1CC(C(=O)N[C@]2(C)O[C@@]3(O)C4CCCN4C(=O)[C@H](Cc4ccccc4)N3C2=O)CC2c3cccc4c3c(cn4C)CC21 (stereo partly shown) [MAP0057, 1-Methyl-Dihydroergotamine] | no agonist activity | – | 0.46 | – | EC50 [3]: 0.016 µM; melting point: 216 to 218 °C; IC50 [4]: 0.069 µM; EC50 [6]: 0.00102 µM; EC50 [7]: 0.00045 µM; agonist activity at the 5-HT2B receptor ([2]; FLIPR, dilution series starting with 10 μM, FIG. 1): no agonist activity; IC50 [8]: 0.016 µM |
| CC(N)Cc1c[nH]c2ccc(O)cc12 (stereo not drawn) [alpha-Me-5HT] | – | 0.0002 | – | – | – |
| CN1C[C@H](C(=O)N[C@]2(C)O[C@@]3(O)[C@@H]4CCCN4C(=O)[C@H](Cc4ccccc4)N3C2=O)C[C@@H]2c3cccc4[nH]cc(c34)C[C@H]21 [dihydroergotamine] | no agonist activity | – | 0.28 | 0.26 | – |
| CNS(=O)(=O)Cc1ccc2[nH]cc(CCN(C)C)c2c1 [sumatriptan] | no agonist activity | – | – | – | antagonist activity at the 5-HT2c receptor ([5]; FLIPR): no antagonist activity |
| CN1C[C@H](C(=O)N[C@]2(C)O[C@@]3(O)[C@@H]4CCCN4C(=O)[C@H](Cc4ccccc4)N3C2=O)C=C2c3cccc4[nH]cc(c34)C[C@H]21 [ergotamine] | – | – | – | 0.16 | EC50 [1]: 5 µM |
